{"source": "patent US10023592B2", "about": "“Bromodomain inhibitors” (Celgene Quanticel Research, Inc., priority 2013, dated 2018)", "key": {"[1]": {"tested_on": "Raji, human Burkitts lymphoma cells", "test": "Cell-MTS proliferation assay, Raji", "type": "cell-based", "settings": "Homo sapiens, 168 hr", "how_it_was_run": "(§1)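 Seeded for ~90% confluence at 7 days (Raji 15,000, HL-60 5,000, NCI-H460 3,000 cells/well); compound added 24 h post-plating as 11-point dilution, 100 μM to 2.0 nM final.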"}, "[2]": {"tested_on": "HL-60, human proleukemia cells", "test": "Cell-MTS proliferation assay, HL-60", "type": "cell-based", "settings": "Homo sapiens, 168 hr", "how_it_was_run": "as §1"}, "[3]": {"tested_on": "NCI-H460, human non-small cell lung cancer cells", "test": "Cell-MTS proliferation assay, NCI-H460", "type": "cell-based", "settings": "Homo sapiens, 168 hr", "how_it_was_run": "as §1"}, "BRD4(BD1)": {"target": "BRD4(BD1) (Homo sapiens (Human), UniProt O60885)", "test": "In vitro enzyme inhibition assay (BRD4 AlphaScreen)", "type": "binding", "how_it_was_run": "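His-tagged BRD4 tested by AlphaScreen for binding of biotinylated H4K5/8/12/16-tetraacetyl peptide. After 20 min at room temperature, streptavidin donor and nickel chelate acceptor beads added (5 μg/mL final each). IC50 determined.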"}, "[4]": {"settings": "NCI-H460, Cell-MTS proliferation"}, "[5]": {"settings": "in vitro enzyme inhibition assay"}, "[6]": {"settings": "Cell-MTS proliferation, Raji cells"}, "[7]": {"settings": "Cell-MTS proliferation, HL-60 cells"}, "[8]": {"settings": "Cell-MTS proliferation, NCI-H460 cells"}, "[9]": {"settings": "Raji, Cell-MTS, class symbols A/B/C"}, "[10]": {"settings": "HL-60, Cell-MTS, class symbols A/B/C"}, "[11]": {"settings": "NCI-H460, Cell-MTS, class symbols A/B/C"}}}
{"smiles": "Cn1cc(-c2cc(S(C)(=O)=O)ccc2O[C@H]2CC[C@H](O)CC2)c2ccc(F)cc2c1=O", "note": "[Example 187, 7-fluoro-4-[2-(trans-4-hydroxycyclohexyl)oxy-5-methylsulfonylphenyl]-2-methylisoquinolin-1-one]", "values": [{"measurement": "IC50", "setting": "[1]; Raji, Cell-MTS proliferation", "value": "< 500", "unit": "nM"}, {"measurement": "IC50", "setting": "[2]; HL-60, Cell-MTS proliferation", "value": "< 500", "unit": "nM"}, {"measurement": "IC50", "setting": "[3]; [4]", "value": "> 5000", "unit": "nM"}, {"measurement": "IC50", "setting": "BRD4(BD1); [5]", "value": "< 500", "unit": "nM"}]}
{"smiles": "Cn1cc(-c2cc(S(C)(=O)=O)ccc2NCC2CC2)c2ccc(F)cc2c1=O", "note": "[Example 196, 4-[2-(cyclopropylmethylamino)-5-methylsulfonylphenyl]-7-fluoro-2-methylisoquinolin-1-one]", "values": [{"measurement": "IC50", "setting": "[1]; Raji, Cell-MTS proliferation", "value": "< 500", "unit": "nM"}, {"measurement": "IC50", "setting": "[2]; HL-60, Cell-MTS proliferation", "value": "< 500", "unit": "nM"}, {"measurement": "IC50", "setting": "[3]; [4]", "value": "> 5000", "unit": "nM"}, {"measurement": "IC50", "setting": "BRD4(BD1); [5]", "value": "< 500", "unit": "nM"}]}
{"smiles": "CCS(=O)(=O)c1ccc(OC2CCC(F)(F)CC2)c(-c2cn(C)c(=O)c3cncn23)c1", "note": "[Example 373, 5-[2-(4,4-difluorocyclohexyl)oxy-5-ethylsulfonylphenyl]-7-methylimidazo[1,5-a]pyrazin-8-one]", "values": [{"measurement": "IC50", "setting": "[1]; [6]", "value": "500 to 5000", "unit": "nM"}, {"measurement": "IC50", "setting": "[2]; [7]", "value": "< 500", "unit": "nM"}, {"measurement": "IC50", "setting": "[3]; [8]", "value": "> 5000", "unit": "nM"}, {"measurement": "IC50", "setting": "BRD4(BD1); [5]", "value": "< 500", "unit": "nM"}]}
{"smiles": "CCOc1ccc(S(=O)(=O)CC)cc1-c1cc(N(C)C)c(=O)n(C)c1", "note": "[Example 469, 3-(dimethylamino)-5-(2-ethoxy-5-ethylsulfonylphenyl)-1-methylpyridin-2-one]", "values": [{"measurement": "IC50", "setting": "[1]; [6]", "value": "< 500", "unit": "nM"}, {"measurement": "IC50", "setting": "[2]; [7]", "value": "< 500", "unit": "nM"}, {"measurement": "IC50", "setting": "[3]; [8]", "value": "> 5000", "unit": "nM"}, {"measurement": "IC50", "setting": "BRD4(BD1); [5]", "value": "< 500", "unit": "nM"}]}
{"smiles": "CCS(=O)(=O)Nc1cccc(-c2cn(C)c(=O)c3ccc(-c4ccccn4)cc23)c1", "note": "[Example 87, N-[3-(2-methyl-1-oxo-6-pyridin-2-ylisoquinolin-4-yl)phenyl]ethanesulfonamide]", "values": [{"measurement": "IC50", "setting": "[1]; [9]", "value": "500 to 5000", "unit": "nM"}, {"measurement": "IC50", "setting": "[2]; [10]", "value": "< 500", "unit": "nM"}, {"measurement": "IC50", "setting": "[3]; [11]", "value": "> 5000", "unit": "nM"}, {"measurement": "IC50", "setting": "BRD4(BD1); class symbols A/B/C", "value": "500 to 5000", "unit": "nM"}]}
{"smiles": "CCS(=O)(=O)Nc1ncc(OCC2CC2)c(-c2cn(C)c(=O)c3ccccc23)n1", "note": "[Example 155, N-[5-(cyclopropylmethoxy)-4-(2-methyl-1-oxoisoquinolin-4-yl)pyrimidin-2-yl]ethanesulfonamide]", "values": [{"measurement": "IC50", "setting": "[1]; Raji, Cell-MTS proliferation", "value": "< 500", "unit": "nM"}, {"measurement": "IC50", "setting": "[2]; HL-60, Cell-MTS proliferation", "value": "< 500", "unit": "nM"}, {"measurement": "IC50", "setting": "[3]; [4]", "value": "> 5000", "unit": "nM"}, {"measurement": "IC50", "setting": "BRD4(BD1); [5]", "value": "< 500", "unit": "nM"}]}
{"smiles": "Cc1cc(-c2cc(OCCc3ccccc3)cc(S(C)(=O)=O)c2)cn(C)c1=O", "note": "[Example 326, 1,3-dimethyl-5-[3-methylsulfonyl-5-(2-phenylethoxy)phenyl]pyridin-2-one]", "values": [{"measurement": "IC50", "setting": "[1]; Raji, Cell-MTS proliferation", "value": "500 to 5000", "unit": "nM"}, {"measurement": "IC50", "setting": "[2]; HL-60, Cell-MTS proliferation", "value": "500 to 5000", "unit": "nM"}, {"measurement": "IC50", "setting": "[3]; [4]", "value": "> 5000", "unit": "nM"}, {"measurement": "IC50", "setting": "BRD4(BD1); [5]", "value": "< 500", "unit": "nM"}]}
{"smiles": "CCS(=O)(=O)Nc1cnc(OCC2CC2)c(-c2cn(C)c(=O)c3ccccc23)c1", "note": "[Example 320, N-[6-(cyclopropylmethoxy)-5-(2-methyl-1-oxoisoquinolin-4-yl)pyridin-3-yl]ethanesulfonamide]", "values": [{"measurement": "IC50", "setting": "[1]; Raji, Cell-MTS proliferation", "value": "< 500", "unit": "nM"}, {"measurement": "IC50", "setting": "[2]; HL-60, Cell-MTS proliferation", "value": "< 500", "unit": "nM"}, {"measurement": "IC50", "setting": "[3]; [4]", "value": "> 5000", "unit": "nM"}, {"measurement": "IC50", "setting": "BRD4(BD1); [5]", "value": "< 500", "unit": "nM"}]}
{"smiles": "Cn1cc(-c2cc(S(C)(=O)=O)ccc2OCC2CC2)c2cc(C(N)=O)sc2c1=O", "note": "[Example 267, 4-[2-(cyclopropylmethoxy)-5-methylsulfonylphenyl]-6-methyl-7-oxothieno[2,3-c]pyridine-2-carboxamide]", "values": [{"measurement": "IC50", "setting": "[1]; Raji, Cell-MTS proliferation", "value": "500 to 5000", "unit": "nM"}, {"measurement": "IC50", "setting": "[2]; HL-60, Cell-MTS proliferation", "value": "< 500", "unit": "nM"}, {"measurement": "IC50", "setting": "[3]; [4]", "value": "> 5000", "unit": "nM"}, {"measurement": "IC50", "setting": "BRD4(BD1); [5]", "value": "< 500", "unit": "nM"}]}
{"smiles": "Cn1cc(-c2nc(CS(C)(=O)=O)ncc2OCC2CC2)c2ccccc2c1=O", "note": "[Example 143, 4-[5-(cyclopropylmethoxy)-2-(methylsulfonylmethyl)pyrimidin-4-yl]-2-methylisoquinolin-1-one]", "values": [{"measurement": "IC50", "setting": "[1]; Raji, Cell-MTS proliferation", "value": "500 to 5000", "unit": "nM"}, {"measurement": "IC50", "setting": "[2]; HL-60, Cell-MTS proliferation", "value": "500 to 5000", "unit": "nM"}, {"measurement": "IC50", "setting": "[3]; [4]", "value": "> 5000", "unit": "nM"}, {"measurement": "IC50", "setting": "BRD4(BD1); [5]", "value": "< 500", "unit": "nM"}]}
{"smiles": "Cn1cc(-c2cc(S(C)(=O)=O)ccc2OCC2CC2)c2ccc(F)cc2c1=O", "note": "[Example 91, 4-[2-(cyclopropylmethoxy)-5-methylsulfonylphenyl]-7-fluoro-2-methyl-isoquinolin-1-one]", "values": [{"measurement": "IC50", "setting": "[1]; [9]", "value": "< 500", "unit": "nM"}, {"measurement": "IC50", "setting": "[2]; [10]", "value": "< 500", "unit": "nM"}, {"measurement": "IC50", "setting": "[3]; [11]", "value": "> 5000", "unit": "nM"}, {"measurement": "IC50", "setting": "BRD4(BD1); class symbols A/B/C", "value": "< 500", "unit": "nM"}]}
{"smiles": "CCS(=O)(=O)c1ccc(OC2CCCC2)c(-c2cn(C)c(=O)c3cncn23)c1", "note": "[Example 374, 5-(2-cyclopentyloxy-5-ethylsulfonylphenyl)-7-methylimidazo[1,5-a]pyrazin-8-one]", "values": [{"measurement": "IC50", "setting": "[1]; [6]", "value": "< 500", "unit": "nM"}, {"measurement": "IC50", "setting": "[2]; [7]", "value": "< 500", "unit": "nM"}, {"measurement": "IC50", "setting": "[3]; [8]", "value": "> 5000", "unit": "nM"}, {"measurement": "IC50", "setting": "BRD4(BD1); [5]", "value": "< 500", "unit": "nM"}]}
